Measurements taken from ChEMBL document CHEMBL1201862, “PubChem BioAssay data set” (2004).
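Cultured in 96-well plates, cells were exposed to test compound for 48 hours across five concentrations. Abbreviation: GI50, concentration required for 50% inhibition of growth.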 Calls of active or inactive are those of the source. Rule as the data show it: active = GI50 up to about 1.1 µM and inactive = higher.

How the values were obtained:
Experiment in all cases: NCI-60 cell line screen, 48 h
RPMI-8226 = system: RPMI-8226
MDA-N = system: MDA-N
SF-268 = system: SF-268
T47D = system: T47D
OVCAR-3 = system: OVCAR-3
MCF7 = system: MCF7
PC-3 = system: PC-3
DU-145 = system: DU-145
UACC-62 = system: UACC-62
HL-60 = system: HL-60
MDA-MB-435 = system: MDA-MB-435
HOP-92 = system: HOP-92
UO-31 = system: UO-31
A549 = system: A549
MDA-MB-231 = system: MDA-MB-231
786-0 = system: 786-0
NCI-H226 = system: NCI-H226
SW-620 = system: SW-620
LOX IMVI = system: LOX IMVI
K562 = system: K562

Measured: GI50

COc1ccc2c(c1)CC[C@@H]1[C@@H]2CC[C@]2(C)[C@@H](O)/C(=C/c3ccncc3)C[C@@H]12
inactive: RPMI-8226 3.69 µM | MDA-N 12.4 µM | SF-268 12.6 µM | T47D 5.14 µM | OVCAR-3 18.5 µM | MCF7 16.6 µM | PC-3 10.1 µM | DU-145 18 µM | UACC-62 13.8 µM | HL-60 7.98 µM | MDA-MB-435 9.77 µM | HOP-92 14 µM | UO-31 14 µM | A549 9.84 µM | MDA-MB-231 14.2 µM | 786-0 14.2 µM | NCI-H226 20.1 µM | SW-620 6.41 µM

C=CCN(c1cc(OC)c2[nH]c(C(=O)O)c(C)c2c1[N+](=O)[O-])S(C)(=O)=O
inactive: RPMI-8226 > 100 µM | MDA-N > 100 µM | SF-268 > 100 µM | T47D > 100 µM | LOX IMVI > 100 µM | OVCAR-3 > 100 µM | MCF7 > 100 µM | PC-3 > 100 µM | DU-145 > 100 µM | UACC-62 > 100 µM | HL-60 > 100 µM | MDA-MB-435 > 100 µM | UO-31 > 100 µM | A549 > 100 µM | MDA-MB-231 > 100 µM | 786-0 > 100 µM | K562 > 100 µM | NCI-H226 > 100 µM | SW-620 > 100 µM

CC1(C)CC(=O)c2c(nc3c(ccc4ccccc43)c2-c2ccc(NC(=O)CCCCCCCCC(=O)Nc3ccc(-c4c5c(nc6c4ccc4ccccc46)CC(C)(C)CC5=O)cc3)cc2)C1
inactive: RPMI-8226 > 100 µM | MDA-N > 100 µM | SF-268 > 100 µM | T47D > 100 µM | LOX IMVI > 100 µM | OVCAR-3 > 100 µM | MCF7 > 100 µM | PC-3 > 100 µM | DU-145 > 100 µM | HL-60 > 100 µM | MDA-MB-435 > 100 µM | UO-31 > 100 µM | A549 > 100 µM | MDA-MB-231 > 100 µM | 786-0 > 100 µM | K562 > 100 µM | NCI-H226 > 100 µM | SW-620 > 100 µM

N#CC(/N=N/c1ccccc1)c1nc2ccccc2o1 (centres undefined)
inactive: RPMI-8226 23.6 µM | MDA-N 95.7 µM | SF-268 22.2 µM | T47D 8.13 µM | OVCAR-3 25.4 µM | MCF7 59.3 µM | PC-3 29.5 µM | DU-145 26.5 µM | UACC-62 37.7 µM | HL-60 > 100 µM | MDA-MB-435 > 100 µM | HOP-92 15 µM | UO-31 56.6 µM | A549 27.4 µM | MDA-MB-231 20.8 µM | 786-0 21.8 µM | K562 45.1 µM | NCI-H226 35.7 µM

C=CCOCn1cc(F)c(=O)[nH]c1=O
inactive: RPMI-8226 > 100 µM | MDA-N > 100 µM | SF-268 > 100 µM | T47D > 100 µM | LOX IMVI > 100 µM | MCF7 > 100 µM | PC-3 > 100 µM | DU-145 > 100 µM | UACC-62 > 100 µM | HL-60 > 100 µM | MDA-MB-435 > 100 µM | UO-31 > 100 µM | A549 > 100 µM | MDA-MB-231 > 100 µM | 786-0 > 100 µM | K562 > 100 µM | NCI-H226 > 100 µM | SW-620 > 100 µM

Cc1sc2nc3n(c(=O)c2c1C)N=CN(c1ccc(F)cc1)C3
inactive: RPMI-8226 > 100 µM | MDA-N > 100 µM | SF-268 81.7 µM | T47D > 100 µM | LOX IMVI > 100 µM | OVCAR-3 > 100 µM | MCF7 > 100 µM | PC-3 > 100 µM | DU-145 > 100 µM | UACC-62 > 100 µM | MDA-MB-435 > 100 µM | HOP-92 24.2 µM | UO-31 > 100 µM | A549 43.9 µM | MDA-MB-231 59 µM | 786-0 19.5 µM | K562 > 100 µM | NCI-H226 > 100 µM | SW-620 > 100 µM

Cc1cc(S(=O)(=O)Nc2nnc3ccccn23)c(S)cc1Cl
inactive: RPMI-8226 > 100 µM | MDA-N > 100 µM | T47D > 100 µM | LOX IMVI > 100 µM | OVCAR-3 > 100 µM | MCF7 > 100 µM | PC-3 > 100 µM | DU-145 > 100 µM | UACC-62 > 100 µM | HL-60 > 100 µM | MDA-MB-435 > 100 µM | UO-31 > 100 µM | A549 37.2 µM | MDA-MB-231 > 100 µM | 786-0 > 100 µM | K562 > 100 µM | SW-620 > 100 µM

CCOC(=O)C1(C/C=C\CBr)CCCCCCC1=O (centres undefined)
inactive: MDA-N > 100 µM | SF-268 > 100 µM | T47D > 100 µM | LOX IMVI > 100 µM | MCF7 > 100 µM | PC-3 > 100 µM | DU-145 > 100 µM | UACC-62 > 100 µM | HL-60 > 100 µM | MDA-MB-435 > 100 µM | UO-31 > 100 µM | A549 > 100 µM | MDA-MB-231 > 100 µM | 786-0 > 100 µM | NCI-H226 > 100 µM | SW-620 > 100 µM

O=P1(c2ccccc2)C2=CCC=CC2C(c2ccccc2)N1Cc1ccccc1 (centres undefined)
inactive: RPMI-8226 13.3 µM | MDA-N 20.9 µM | SF-268 14.7 µM | T47D 16.3 µM | MCF7 11.2 µM | PC-3 13.4 µM | DU-145 17.5 µM | UACC-62 8.63 µM | HL-60 20.4 µM | MDA-MB-435 15.6 µM | HOP-92 12.4 µM | UO-31 12.4 µM | A549 14.7 µM | MDA-MB-231 15.9 µM | 786-0 15.5 µM | K562 16.1 µM | SW-620 21 µM

CCOC(=O)c1ccc2c(=O)n3c(C(=O)OCC)ccc3c(=O)n12
inactive: RPMI-8226 > 100 µM | MDA-N > 100 µM | SF-268 > 100 µM | T47D > 100 µM | LOX IMVI > 100 µM | OVCAR-3 > 100 µM | MCF7 > 100 µM | PC-3 > 100 µM | DU-145 > 100 µM | UACC-62 > 100 µM | HL-60 > 100 µM | MDA-MB-435 > 100 µM | UO-31 > 100 µM | A549 > 100 µM | MDA-MB-231 > 100 µM | 786-0 > 100 µM | K562 > 100 µM | NCI-H226 > 100 µM | SW-620 > 100 µM

CO/C(=N\N=C(/C)C(F)(F)F)c1ccncc1
inactive: RPMI-8226 > 100 µM | MDA-N > 100 µM | T47D > 100 µM | OVCAR-3 > 100 µM | MCF7 > 100 µM | PC-3 38.7 µM | DU-145 > 100 µM | UACC-62 > 100 µM | HL-60 > 100 µM | MDA-MB-435 > 100 µM | HOP-92 > 100 µM | UO-31 > 100 µM | MDA-MB-231 > 100 µM | K562 > 100 µM | NCI-H226 > 100 µM
